Assay: carotenoids in neonatal brain samples
Settings: neonatal brain samples studied by the Applicants

Structure (SMILES)	carotenoid occurrence in neonatal brain samples
CC(C)=CCC/C(C)=C/C=C/C(C)=C/C=C/C(C)=C/C=C/C=C(C)/C=C/C=C(C)/C=C/C=C(\C)CCC=C(C)C [lycopene]	very few neonatal brain samples are found to contain detectable levels
CC1=CC(O)CC(C)(C)[C@H]1/C=C/C(C)=C/C=C/C(C)=C/C=C/C=C(C)/C=C/C=C(C)/C=C/C1=C(C)C[C@@H](O)CC1(C)C (stereo partly drawn) [trans-lutein]	predominant carotenoid in the majority of neonatal brain samples

— patent US20160022710A1, “PRENATAL AND LACTATION SUPPLEMENTS TO ENHANCE CENTRAL NERVOUS SYSTEM DEVELOPMENT OF OFFSPRING” (ABBOTT LABORATORIES, priority 2013, published 2016)
